The target of one experiment is Adenosine receptor (Rattus norvegicus, UniProt P29276+P25099+P30543+P28647). The experiment can be described thus: Displacement of [3H]CHA from rat brain adenosine receptor. In general terms: In a radioligand displacement assay an active substance lowers the binding of a labelled ligand.
Experiment [1] addresses Adenosine receptor (Rattus norvegicus) (UniProt P29276+P25099+P30543+P28647). As to the kind of experiment: Displacement of [3H]CHA from rat brain adenosine receptor at 10e-4 M.

The IC50 is the concentration at which inhibition is half-maximal. Read a low IC50 as higher potency. What is called inhibition is the change of the read-out against control, counted positive when it falls.

Chain of Adenosine receptor (Rattus norvegicus) (P25099 whole entry, looked up): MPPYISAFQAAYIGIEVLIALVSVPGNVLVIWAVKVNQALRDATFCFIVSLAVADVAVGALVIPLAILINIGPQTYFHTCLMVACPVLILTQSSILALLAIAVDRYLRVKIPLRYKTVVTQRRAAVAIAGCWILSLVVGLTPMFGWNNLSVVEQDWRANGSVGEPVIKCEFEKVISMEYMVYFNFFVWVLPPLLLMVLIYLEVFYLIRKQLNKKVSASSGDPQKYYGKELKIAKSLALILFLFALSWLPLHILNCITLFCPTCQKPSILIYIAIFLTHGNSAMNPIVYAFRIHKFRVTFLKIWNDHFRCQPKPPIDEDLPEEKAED
Chain of Adenosine receptor (Rattus norvegicus) (P28647 whole entry, looked up): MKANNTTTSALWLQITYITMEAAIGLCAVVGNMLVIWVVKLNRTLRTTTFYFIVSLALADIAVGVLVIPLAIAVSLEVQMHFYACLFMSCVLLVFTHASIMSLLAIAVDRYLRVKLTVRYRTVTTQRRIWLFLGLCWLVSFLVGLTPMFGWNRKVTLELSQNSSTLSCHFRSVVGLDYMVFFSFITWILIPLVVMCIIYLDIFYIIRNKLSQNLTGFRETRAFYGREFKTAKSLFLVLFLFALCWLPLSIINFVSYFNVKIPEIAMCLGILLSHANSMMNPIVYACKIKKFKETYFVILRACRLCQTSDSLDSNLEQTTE
Chain of Adenosine receptor (Rattus norvegicus) (P29276 whole entry, looked up): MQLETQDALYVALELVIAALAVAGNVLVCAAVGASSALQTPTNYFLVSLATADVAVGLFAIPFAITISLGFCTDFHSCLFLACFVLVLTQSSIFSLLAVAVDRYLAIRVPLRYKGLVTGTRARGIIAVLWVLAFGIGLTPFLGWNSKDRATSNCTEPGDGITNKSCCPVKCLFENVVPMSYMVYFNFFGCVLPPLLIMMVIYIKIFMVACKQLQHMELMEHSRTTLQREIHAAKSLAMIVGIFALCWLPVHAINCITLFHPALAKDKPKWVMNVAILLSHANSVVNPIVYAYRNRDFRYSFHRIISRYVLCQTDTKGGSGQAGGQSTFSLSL
Chain of Adenosine receptor (Rattus norvegicus) (P30543 whole entry, looked up): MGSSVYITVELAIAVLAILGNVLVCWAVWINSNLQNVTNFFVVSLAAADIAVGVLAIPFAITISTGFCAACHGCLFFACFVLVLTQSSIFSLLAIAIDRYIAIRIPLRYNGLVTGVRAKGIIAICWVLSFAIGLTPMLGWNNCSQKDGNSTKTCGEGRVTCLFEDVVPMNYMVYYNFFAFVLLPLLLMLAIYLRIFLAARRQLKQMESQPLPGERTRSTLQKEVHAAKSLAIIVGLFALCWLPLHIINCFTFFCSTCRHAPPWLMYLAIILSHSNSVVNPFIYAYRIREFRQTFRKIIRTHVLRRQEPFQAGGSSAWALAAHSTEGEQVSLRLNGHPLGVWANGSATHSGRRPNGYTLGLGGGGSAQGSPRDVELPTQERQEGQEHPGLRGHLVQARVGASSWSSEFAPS

Compound `CCCNc1ncnc2c1ncn2C1O[C@H](CO)[C@@H](O)[C@H]1O` (stereo not given in full) displayed a 50% inhibitory concentration (IC50) on Adenosine receptor of 0.004 µM.

`C[C@@H](Cc1ccccc1)Nc1ncnc2c1cnn2[C@@H]1O[C@H](CO)[C@@H](O)[C@H]1O` (stereo in doubt) yielded an inhibition in experiment [1] of 31%. The compound `CCCNc1ncnc2c1cnn2C1O[C@H](CO)[C@@H](O)[C@H]1O` (stereo not given in full) gave a half-maximal inhibitory concentration (IC50) at Adenosine receptor of 76.5 µM. As to `C[C@@H](Cc1ccccc1)Nc1ncnc2c1cnn2[C@@H]1O[C@H](CO)[C@@H](O)[C@H]1O` (stereo in doubt; 1), in experiment [1], the inhibition was found to be 47%. Compound `OC[C@H]1OC(n2ncc3c(NC4CCCCC4)ncnc32)[C@H](O)[C@@H]1O` (stereo not given in full) registered an IC50 at Adenosine receptor of 20.2 µM.

The record behind these values is ChEMBL document CHEMBL1122392, “C4-substituted 1-beta-D-ribofuranosylpyrazolo[3,4-d]pyrimidines as adenosine agonist analogues” (J Med Chem, 1983).
